Key:
Format in all cases: biochemical
[1] = target: human JAK1 (a.a. 837-1142) (Homo sapiens, UniProt P23458); assay: In vitro JAK kinase assay (HTRF, phosphorylation of a biotinylated peptide), JAK1; conditions: measured at 1 mM ATP
Method in brief: (§1)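 N-terminally His-tagged catalytic domains, baculovirus-expressed in insect cells and purified, were used as enzyme. Reactions ran 1 hr at room temperature and were stopped with a mix of 45 mM EDTA, 300 nM SA-APC and 6 nM Eu-Py20. The HTRF signal was read after 40 min of antibody binding.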

[2] = target: human JAK1 (a.a. 837-1142); assay: as above; conditions: ratio of JAK2 IC50 to JAK1 IC50, measured at 1 mM ATP
Method in brief: as §1

Jak2 (a.a. 828-1132) = Jak2 (a.a. 828-1132) (Homo sapiens (Human), UniProt O60674); assay: In vitro JAK kinase assay (HTRF, phosphorylation of a biotinylated peptide), JAK2; conditions: measured at 1 mM ATP
Method in brief: as §1

Sequence of Jak2 (a.a. 828-1132) (O60674 828-1132): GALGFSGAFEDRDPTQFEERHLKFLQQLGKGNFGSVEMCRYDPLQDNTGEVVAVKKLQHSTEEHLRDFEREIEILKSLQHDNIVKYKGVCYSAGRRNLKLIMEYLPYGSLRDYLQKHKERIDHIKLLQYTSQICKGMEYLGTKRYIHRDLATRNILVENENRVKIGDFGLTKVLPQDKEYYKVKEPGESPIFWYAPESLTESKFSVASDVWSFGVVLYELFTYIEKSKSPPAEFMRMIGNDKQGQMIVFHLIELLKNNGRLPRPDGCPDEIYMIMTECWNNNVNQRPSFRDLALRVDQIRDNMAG

## Cn1cnc(S(=O)(=O)N2CCC(N3CC(CC#N)(n4cc(-c5ncnc6[nH]ccc56)cn4)C3)CC2)c1 [Example 258, {1-{1-[(1-methyl-1H-imidazol-4-yl)sulfonyl]piperidin-4-yl}-3-[4-(7H-pyrrolo[2,3-d]pyrimidin-4-yl)-1H-pyrazol-1-yl]azetidin-3-yl}acetonitrile]
[1]
  IC50: ≤ 5 nM
[2]
  IC50 Ratio JAK2/JAK1: 5.0
Jak2 (a.a. 828-1132)
  IC50: ≤ 10 nM

## Cc1nc(S(=O)(=O)N2CCC(N3CC(CC#N)(n4cc(-c5ncnc6[nH]ccc56)cn4)C3)CC2)cn1C [Example 259, {1-{1-[(1,2-dimethyl-1H-imidazol-4-yl)sulfonyl]piperidin-4-yl}-3-[4-(7H-pyrrolo[2,3-d]pyrimidin-4-yl)-1H-pyrazol-1-yl]azetidin-3-yl}acetonitrile]
[1]
  IC50: ≤ 5 nM
[2]
  IC50 Ratio JAK2/JAK1: 4.6
Jak2 (a.a. 828-1132)
  IC50: ≤ 10 nM

## Cc1noc(C)c1S(=O)(=O)N1CCC(N2CC(CC#N)(n3cc(-c4ncnc5[nH]ccc45)cn3)C2)CC1 [Example 260, {1-{1-[(3,5-dimethylisoxazol-4-yl)sulfonyl]piperidin-4-yl}-3-[4-(7H-pyrrolo[2,3-d]pyrimidin-4-yl)-1H-pyrazol-1-yl]azetidin-3-yl}acetonitrile]
[1]
  IC50: ≤ 5 nM
[2]
  IC50 Ratio JAK2/JAK1: 7.1
Jak2 (a.a. 828-1132)
  IC50: 10 to 50 nM

## N#CCC1(n2ccc(-c3ncnc4[nH]ccc34)c2)CN(C2CCN(C(=O)c3ccnc(C(F)(F)F)c3F)CC2)C1 [Example 261, {1-{1-[3-Fluoro-2-(trifluoromethyl)isonicotinoyl]piperidin-4-yl}-3-[3-(7H-pyrrolo[2,3-d]pyrimidin-4-yl)-1H-pyrrol-1-yl]azetidin-3-yl}acetonitrile]
[1]
  IC50: 5 to 20 nM
[2]
  IC50 Ratio JAK2/JAK1: 20.8
Jak2 (a.a. 828-1132)
  IC50: > 100 nM

## N#CCC1(n2ccc(-c3ncnc4[nH]ccc34)c2)CN(C2CCN(C(=O)c3cccc(C#N)c3)CC2)C1 [Example 262, 3-[(4-{3-(cyanomethyl)-3-[3-(7H-pyrrolo[2,3-d]pyrimidin-4-yl)-1H-pyrrol-1-yl]azetidin-1-yl}piperidin-1-yl)carbonyl]benzonitrile]
[1]
  IC50: 5 to 20 nM
[2]
  IC50 Ratio JAK2/JAK1: 7.4
Jak2 (a.a. 828-1132)
  IC50: 50 to 100 nM

## N#CCC1(n2ccc(-c3ncnc4[nH]ccc34)c2)CN(C2CCN(C(=O)c3cc(F)cc(C#N)c3)CC2)C1 [Example 263, 3-[(4-{3-(cyanomethyl)-3-[3-(7H-pyrrolo[2,3-d]pyrimidin-4-yl)-1H-pyrrol-1-yl]azetidin-1-yl}piperidin-1-yl)carbonyl]-5-fluorobenzonitrile]
[1]
  IC50: ≤ 5 nM
[2]
  IC50 Ratio JAK2/JAK1: 12.2
Jak2 (a.a. 828-1132)
  IC50: 50 to 100 nM

## N#CCC1(n2ccc(-c3ncnc4[nH]ccc34)c2)CN(C2CCN(C(=O)c3ccc(C#N)cc3F)CC2)C1 [Example 264, 4-[(4-{3-(cyanomethyl)-3-[3-(7H-pyrrolo[2,3-d]pyrimidin-4-yl)-1H-pyrrol-1-yl]azetidin-1-yl}piperidin-1-yl)carbonyl]-3-fluorobenzonitrile]
[1]
  IC50: 5 to 20 nM
[2]
  IC50 Ratio JAK2/JAK1: 9.5
Jak2 (a.a. 828-1132)
  IC50: 50 to 100 nM

## N#CCC1(n2ccc(-c3ncnc4[nH]ccc34)c2)CN(C2CCN(C(=O)c3c(F)cc(C#N)cc3F)CC2)C1 [Example 265, 4-[(4-{3-(cyanomethyl)-3-[3-(7H-pyrrolo[2,3-d]pyrimidin-4-yl)-1H-pyrrol-1-yl]azetidin-1-yl}piperidin-1-yl)carbonyl]-3,5-difluorobenzonitrile]
[1]
  IC50: 5 to 20 nM
[2]
  IC50 Ratio JAK2/JAK1: 6.6
Jak2 (a.a. 828-1132)
  IC50: 50 to 100 nM

## N#CCC1(n2ccc(-c3ncnc4[nH]ccc34)c2)CN(C2CCN(C(=O)c3cc(F)ccc3C(F)(F)F)CC2)C1 [Example 266, {1-{1-[5-fluoro-2-(trifluoromethyl)benzoyl]piperidin-4-yl}-3-[3-(7H-pyrrolo[2,3-d]pyrimidin-4-yl)-1H-pyrrol-1-yl]azetidin-3-yl}acetonitrile]
[1]
  IC50: 5 to 20 nM
[2]
  IC50 Ratio JAK2/JAK1: 6.6
Jak2 (a.a. 828-1132)
  IC50: 50 to 100 nM

## N#CCC1(n2ccc(-c3ncnc4[nH]ccc34)c2)CN(C2CCN(C(=O)c3ccc(C(F)(F)F)c(F)c3)CC2)C1 [Example 267, {1-{1-[3-fluoro-4-(trifluoromethyl)benzoyl]piperidin-4-yl}-3-[3-(7H-pyrrolo[2,3-d]pyrimidin-4-yl)-1H-pyrrol-1-yl]azetidin-3-yl}acetonitrile]
[1]
  IC50: 5 to 20 nM
[2]
  IC50 Ratio JAK2/JAK1: 6.6
Jak2 (a.a. 828-1132)
  IC50: 50 to 100 nM

## N#CCC1(n2ccc(-c3ncnc4[nH]ccc34)c2)CN(C2CCN(C(=O)c3cccc(C(F)(F)F)c3)CC2)C1 [Example 268, (3-[3-(7H-pyrrolo[2,3-d]pyrimidin-4-yl)-1H-pyrrol-1-yl]-1-{1-[3-(trifluoromethyl)benzoyl]piperidin-4-yl}azetidin-3-yl)acetonitrile]
[1]
  IC50: 5 to 20 nM
[2]
  IC50 Ratio JAK2/JAK1: 3.1
Jak2 (a.a. 828-1132)
  IC50: 10 to 50 nM

## N#CCC1(n2ccc(-c3ncnc4[nH]ccc34)c2)CN(C2CCN(C(=O)c3cc(OC(F)(F)F)ccc3F)CC2)C1 [Example 269, {1-{1-[2-fluoro-5-(trifluoromethoxy)benzoyl]piperidin-4-yl}-3-[3-(7H-pyrrolo[2,3-d]pyrimidin-4-yl)-1H-pyrrol-1-yl]azetidin-3-yl}acetonitrile]
[1]
  IC50: ≤ 5 nM
[2]
  IC50 Ratio JAK2/JAK1: 5.0
Jak2 (a.a. 828-1132)
  IC50: 10 to 50 nM

## N#CCC1(n2ccc(-c3ncnc4[nH]ccc34)c2)CN(C2CCN(C(=O)c3c(F)ccc(F)c3F)CC2)C1 [Example 270, {3-[3-(7H-pyrrolo[2,3-d]pyrimidin-4-yl)-1H-pyrrol-1-yl]-1-[1-(2,3,6-trifluorobenzoyl)piperidin-4-yl]azetidin-3-yl}acetonitrile]
[1]
  IC50: ≤ 5 nM
[2]
  IC50 Ratio JAK2/JAK1: 6.1
Jak2 (a.a. 828-1132)
  IC50: ≤ 10 nM

## N#CCC1(n2ccc(-c3ncnc4[nH]ccc34)c2)CN(C2CCN(C(=O)c3cccs3)CC2)C1 [Example 271, {3-[3-(7H-pyrrolo[2,3-d]pyrimidin-4-yl)-1H-pyrrol-1-yl]-1-[1-(2-thienylcarbonyl)piperidin-4-yl]azetidin-3-yl}acetonitrile]
[1]
  IC50: ≤ 5 nM
[2]
  IC50 Ratio JAK2/JAK1: 7.8
Jak2 (a.a. 828-1132)
  IC50: 10 to 50 nM

## N#CCC1(n2ccc(-c3ncnc4[nH]ccc34)c2)CN(C2CCN(C(=O)c3ccc(C(F)(F)F)cc3F)CC2)C1 [Example 272, {1-{1-[2-fluoro-4-(trifluoromethyl)benzoyl]piperidin-4-yl}-3-[3-(7H-pyrrolo[2,3-d]pyrimidin-4-yl)-1H-pyrrol-1-yl]azetidin-3-yl}acetonitrile]
[1]
  IC50: 5 to 20 nM
[2]
  IC50 Ratio JAK2/JAK1: 6.5
Jak2 (a.a. 828-1132)
  IC50: 10 to 50 nM

## N#CCC1(n2ccc(-c3ncnc4[nH]ccc34)c2)CN(C2CCN(C(=O)c3cc(C(F)(F)F)ccc3F)CC2)C1 [Example 273, {1-{1-[2-fluoro-5-(trifluoromethyl)benzoyl]piperidin-4-yl}-3-[3-(7H-pyrrolo[2,3-d]pyrimidin-4-yl)-1H-pyrrol-1-yl]azetidin-3-yl}acetonitrile]
[1]
  IC50: ≤ 5 nM
[2]
  IC50 Ratio JAK2/JAK1: 4.4
Jak2 (a.a. 828-1132)
  IC50: ≤ 10 nM

## N#CCC1(n2ccc(-c3ncnc4[nH]ccc34)c2)CN(C2CCN(C(=O)c3cc(F)cc(C(F)(F)F)c3)CC2)C1 [Example 274, {1-{1-[3-fluoro-5-(trifluoromethyl)benzoyl]piperidin-4-yl}-3-[3-(7H-pyrrolo[2,3-d]pyrimidin-4-yl)-1H-pyrrol-1-yl]azetidin-3-yl}acetonitrile]
[1]
  IC50: ≤ 5 nM
[2]
  IC50 Ratio JAK2/JAK1: 9.0
Jak2 (a.a. 828-1132)
  IC50: 10 to 50 nM

## N#CCC1(n2ccc(-c3ncnc4[nH]ccc34)c2)CN(C2CCN(C(=O)c3ccc(F)c(C(F)(F)F)c3)CC2)C1 [Example 275, {1-{1-[4-fluoro-3-(trifluoromethyl)benzoyl]piperidin-4-yl}-3-[3-(7H-pyrrolo[2,3-d]pyrimidin-4-yl)-1H-pyrrol-1-yl]azetidin-3-yl}acetonitrile]
[1]
  IC50: 5 to 20 nM
[2]
  IC50 Ratio JAK2/JAK1: 3.1
Jak2 (a.a. 828-1132)
  IC50: 10 to 50 nM

## N#CCC1(n2ccc(-c3ncnc4[nH]ccc34)c2)CN(C2CCN(C(=O)c3cccc(F)c3F)CC2)C1 [Example 276, {1-[1-(2,3-difluorobenzoyl)piperidin-4-yl]-3-[3-(7H-pyrrolo[2,3-d]pyrimidin-4-yl)-1H-pyrrol-1-yl]azetidin-3-yl}acetonitrile]
[1]
  IC50: ≤ 5 nM
[2]
  IC50 Ratio JAK2/JAK1: 4.0
Jak2 (a.a. 828-1132)
  IC50: ≤ 10 nM

## N#CCC1(n2ccc(-c3ncnc4[nH]ccc34)c2)CN(C2CCN(C(=O)c3ccc(F)c(F)c3)CC2)C1 [Example 277, {1-[1-(3,4-difluorobenzoyl)piperidin-4-yl]-3-[3-(7H-pyrrolo[2,3-d]pyrimidin-4-yl)-1H-pyrrol-1-yl]azetidin-3-yl}acetonitrile]
[1]
  IC50: ≤ 5 nM
[2]
  IC50 Ratio JAK2/JAK1: 9.8
Jak2 (a.a. 828-1132)
  IC50: 10 to 50 nM

## N#CCC1(n2ccc(-c3ncnc4[nH]ccc34)c2)CN(C2CCN(C(=O)c3cc(F)ccc3F)CC2)C1 [Example 278, {1-[1-(2,5-difluorobenzoyl)piperidin-4-yl]-3-[3-(7H-pyrrolo[2,3-d]pyrimidin-4-yl)-1H-pyrrol-1-yl]azetidin-3-yl}acetonitrile]
[1]
  IC50: ≤ 5 nM
[2]
  IC50 Ratio JAK2/JAK1: 5.6
Jak2 (a.a. 828-1132)
  IC50: ≤ 10 nM

## N#CCC1(n2ccc(-c3ncnc4[nH]ccc34)c2)CN(C2CCN(C(=O)c3c(F)cccc3F)CC2)C1 [Example 279, {1-[1-(2,6-difluorobenzoyl)piperidin-4-yl]-3-[3-(7H-pyrrolo[2,3-d]pyrimidin-4-yl)-1H-pyrrol-1-yl]azetidin-3-yl}acetonitrile]
[1]
  IC50: ≤ 5 nM
[2]
  IC50 Ratio JAK2/JAK1: 4.1
Jak2 (a.a. 828-1132)
  IC50: ≤ 10 nM

## N#CCC1(n2ccc(-c3ncnc4[nH]ccc34)c2)CN(C2CCN(C(=O)c3ccc(F)c(F)c3F)CC2)C1 [Example 280, {3-[3-(7H-pyrrolo[2,3-d]pyrimidin-4-yl)-1H-pyrrol-1-yl]-1-[1-(2,3,4-trifluorobenzoyl)piperidin-4-yl]azetidin-3-yl}acetonitrile]
[1]
  IC50: ≤ 5 nM
[2]
  IC50 Ratio JAK2/JAK1: 7.5
Jak2 (a.a. 828-1132)
  IC50: ≤ 10 nM
